The source of these data is US7276494B2, “Photosensitisers” (Photopharmica Limited, priority 2000, dated 2007).

The test system of one experiment is LSBD1 tumour. Briefly: PDT-induced LSBD1 tumour growth delay in BDIX rats. In kind it is in vivo. The settings on record: 400 J. The protocol: Data are shown in two animals models, the rat and the mouse. […] Growth delay measures the additional time taken for a treated tumour to grow to a given size, compared with an untreated tumour. Zero growth delay signifies no effect and growth delays of 5 days or longer imply substantial PDT activity.
(1) PDT-Induced LSBD1 Tumour Growth Delay in BDIX Rats
Tumour growth delay is calculated as the number of days for treated tumour to reach a mean diameter of 15 mm minus the number of days for a control tumour to reach a mean diameter of 15 mm. Data for various compounds are shown in Table 2, which also indicates the times (drug-light interval) at which effects occurred.

In experiment [1] the test system is RIF-1 (murine fibrosarcoma) cells. Briefly: Phototoxicity towards cells in culture (photocytotoxic activity in killing RIF-1 cells). The following applies: concentration causing 50% cell death in two hours of illumination. In kind it is cell-based.
Text: [Phot]=Zinc Phthalocyanine; n=4; LD50 is the concentration of drug needed to cause 50% cell death in two hours of illumination
In the next experiment the test system is red blood cells. The settings on record: J. Photochem. Photobiol B: Biology., 45 (1998) 28-35; cited from earlier work.
For a further experiment, the system named is RIF-1 tumour cells. Briefly: In vitro photodynamic activity, RIF-1 tumour cells, cell kill by MTT assay after 665 nm laser radiation. In kind it is cell-based, murine. The following applies: for Light: LD50 (average) / Dark: cell kill: RIF-1 tumour cells, MTT assay; for Light: LD50 (average): 665 nm laser radiation for a fixed time; for Dark: cell kill: no light. The protocol: In vitro photodynamic activity for zinc phthalocyanine-2-(N-2-carboxyethyl)sulphonamide compared with Zinc phthalocyanine tetrasulphonic acid. The sensitiser was tested by incubation with RIF-1 tumour cells at various dose rates, and measuring the cell kill by MTT assay after exposure to 665 nm laser radiation for a fixed time. The results were compared with zinc phthalocyanine tetrasulphonic acid as a control, and were expressed as the LD50 value for the sensitisers.

Setting [2] is: drug-light interval 4 h, 10 mg/kg, 680 nm phthalocyanines / 630 nm PHP.
The mark [3] stands for this setting: drug-light interval 24 h, 10 mg/kg, 680 nm phthalocyanines / 630 nm PHP.
[4] abbreviates: drug-light interval 48 h, 10 mg/kg, 680 nm phthalocyanines / 630 nm PHP.
The mark [5] stands for this setting: drug-light interval 24 h, 5 mg/kg, 680 nm.
Where [6] appears, read: drug-light interval 48 h, 5 mg/kg, 680 nm.

As to “tetrasulphonylamino butyric acid zinc (II) phthalocyanine [TSZnPc-aminobutyric acid]”, the results for the Tumour growth delay with LSBD1 tumour (setting [2]), in the experiment with LSBD1 tumour (setting [3]) and in the experiment on LSBD1 tumour (setting [4]) were 4.3 ± 1.44 days, 7.83 ± 3.33 days and 1.67 ± 1.53 days, respectively. In addition, in experiment [1], the “2h LD50 (mean ± SD, n 3)” value was 90 ± 30 µM.
Take “Tetrasulphonylaminoglycine zinc (II) phthalocyanine [TSZnPc-glycine]”: the Tumour growth delay came to 8.5 ± 3.5 days in the experiment with LSBD1 tumour (drug-light interval 4 h, 5 mg/kg, 680 nm); 4.7 ± 0.75 days with LSBD1 tumour (setting [5]); 4.5 days in the experiment with LSBD1 tumour (setting [6]). Further, the “2h LD50 (mean ± SD, n 3)” value in experiment [1] is 142 ± 37 µM. Further, in the experiment with red blood cells, the “ability to effect haemolysis of red blood cells” value was “relatively poor”.
Regarding “tetrasulphonylamino-α-alanine zinc (II) phthalocyanine [TSZnPc-α-alanine]”, the Tumour growth delay in the experiment on LSBD1 tumour (setting [2]) amounted to 4.33 ± 0.83 days; in the experiment on LSBD1 tumour (setting [3]) it was 6.67 ± 1.09 days; in the experiment on LSBD1 tumour (setting [4]) it was 3.33 ± 0.73 days. Besides, the “2h LD50 (mean ± SD, n 3)” value in experiment [1] came to 109 ± 39 µM.
As for “tetrasulphonylamino valeric acid zinc (II) phthalocyanine [TSZnPc-aminovaleric acid]”, in experiment [1], the “2h LD50 (mean ± SD, n 3)” value was 125 ± 13 µM.
In the case of “zinc phthalocyanine-2-(N-2-carboxyethyl)sulphonamide”, in the experiment with RIF-1 tumour cells, the “Light: LD50 (average)” value came out at 0.2 µM and the “Dark: cell kill” value was “no cell kill detectable”. Further, in the experiment on RIF-1 tumour cells (ratio of light LD50 values, RIF-1 cells), the “times more PDT active than the tetrasulphonic acid (in vitro)” value is “at least 50 times”.
Regarding “tetrasulphonylamino β-alanine zinc (II) phthalocyanine [TSZnPc-β-alanine]”, the Tumour growth delay was determined as 6 ± 0.62 days in the experiment with LSBD1 tumour (drug-light interval 2 h, 10 mg/kg, 680 nm); 10 ± 2.62 days in the experiment with LSBD1 tumour (setting [2]); 5.25 ± 1.59 days in the experiment on LSBD1 tumour (drug-light interval 6 h, 10 mg/kg, 680 nm); 2 days in the experiment on LSBD1 tumour (setting [5]); 2 days in the experiment with LSBD1 tumour (setting [6]). Besides, in experiment [1], the “2h LD50 (mean ± SD, n 3)” value amounted to 109 ± 31 µM.
Turning to “zinc phthalocyanine tetrasulphonic acid [reference compound]”, in the experiment on RIF-1 tumour cells, the “Light: LD50 (average)” value was more than 10 µM and the “Dark: cell kill” value is “no cell kill detectable”.
As for “tetrasulphonylamino caproic acid zinc (II) phthalocyanine [TSZnPc-aminocaproic acid]”, the “2h LD50 (mean ± SD, n 3)” value in experiment [1] was 104 ± 14 µM.
